Test results: ChEMBL document CHEMBL4368907 (J Med Chem, 2019)
Active and inactive are the calls of the source. The calls are words filed in the database; no cut-off is given here. Numbered stars: 1 amine (or outer) side, 2 acyl side, 3 side chain; on linkers, the order of the positions; unused ones are H or OH. Square brackets hold non-standard residues; d marks the D form. Peptide text beside a SMILES is read from it. * marks the point of attachment. Phe(4-CH2SO3H) = N[C@@H](Cc1ccc(CS(=O)(=O)O)cc1)C(=O)O; sY = N[C@@H](Cc1ccc(OS(=O)(=O)O)cc1)C(=O)O; C18 diacid = O=C(O)CCCCCCCCCCCCCCCCC(=O)*; γGlu = O=C(O)[C@H](CCC(=O)[*:2])N[*:1]; NMeF = CN[C@@H](Cc1ccccc1)C(=O)O; NMeD = CN[C@@H](CC(=O)O)C(=O)O; dNMeD = CN[C@H](CC(=O)O)C(=O)O; Nle = CCCC[C@H](N)C(=O)O; AEEA = NCCOCCOCC(=O)O

Experiments:
[1] = Drug level in Ellegaard Gottingen minipig plasma treated with C18d-gammaGlu-(OEG)2-Asp-Phe(4sm)-Nle-Gly-Trp-Nle-DMeAspMePhe-NH2 at 5 nmol/kg, iv administered as single dose by LC-MS/MS analysis; assay type: ADME, organism-based, Sus scrofa; conditions: pig, in vivo
[2] = biological target: T1, Gastrin/cholecystokinin type B receptor (Homo sapiens, UniProt P32239); assay: (§1) Agonist activity at human CCK2R expressed in human 1321N1 cells assessed as IP1 accumulation after 1 hr by HTRF assay; assay type: functional, cell-based
T1 sequence (P32239 whole entry): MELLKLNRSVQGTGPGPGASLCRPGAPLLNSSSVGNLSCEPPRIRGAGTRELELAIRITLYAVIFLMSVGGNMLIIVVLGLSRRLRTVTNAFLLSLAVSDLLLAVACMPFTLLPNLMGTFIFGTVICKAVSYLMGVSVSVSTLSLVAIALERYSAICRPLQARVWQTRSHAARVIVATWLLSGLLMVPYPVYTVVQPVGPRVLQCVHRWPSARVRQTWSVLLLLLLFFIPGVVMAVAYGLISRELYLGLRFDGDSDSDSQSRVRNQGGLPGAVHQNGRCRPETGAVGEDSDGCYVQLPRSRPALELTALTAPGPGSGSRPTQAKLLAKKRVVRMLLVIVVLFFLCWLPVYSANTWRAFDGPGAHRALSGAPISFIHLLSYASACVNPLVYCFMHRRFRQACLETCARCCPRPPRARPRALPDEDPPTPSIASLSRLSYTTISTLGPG

[3] = test system: Sus scrofa; assay: Anti-obesity activity in lean Landrace Yorkshire Duroc pig assessed as food intake at 30 nmol/kg, sc measured at 48 to 72 hrs post dose (reference value: 1.8 to 2.1 kg); assay type: functional
[4] = biological target: T1, Gastrin/cholecystokinin type B receptor; assay: (§2) Displacement of [125I]-CCK-8 from human CCK2R expressed in human 1321N1 cell membranes after 2 hrs by SPA assay
[5] = biological target: T2, Cholecystokinin receptor type A (Homo sapiens, UniProt P32238); assay: (§3) Displacement of [125I]-CCK-8 from human CCK1R expressed in human 1321N1 cell membranes after 2 hrs by SPA assay
T2 sequence (P32238 whole entry): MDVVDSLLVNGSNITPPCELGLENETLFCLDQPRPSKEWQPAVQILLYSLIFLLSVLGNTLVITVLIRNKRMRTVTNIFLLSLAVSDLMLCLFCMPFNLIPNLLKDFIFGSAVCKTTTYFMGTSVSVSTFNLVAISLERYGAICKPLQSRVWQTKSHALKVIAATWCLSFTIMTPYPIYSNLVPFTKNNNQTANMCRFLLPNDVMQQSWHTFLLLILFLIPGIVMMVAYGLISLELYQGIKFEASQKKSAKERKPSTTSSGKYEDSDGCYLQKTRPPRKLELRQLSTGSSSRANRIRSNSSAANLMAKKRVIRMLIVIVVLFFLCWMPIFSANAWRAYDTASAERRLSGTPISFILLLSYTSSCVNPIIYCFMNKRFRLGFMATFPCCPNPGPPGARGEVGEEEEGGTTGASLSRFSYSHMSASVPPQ

[6] = test system: Sus scrofa; assay: Anti-obesity activity in lean Landrace Yorkshire Duroc pig assessed as food intake at 30 nmol/kg, sc measured at 24 to 48 hrs post dose (reference value: 1.8 to 2.1 kg); assay type: functional
[7] = Toxicity in lean Landrace Yorkshire Duroc pig at 30 nmol/kg, sc measured up to 96 hrs post dose; assay type: organism-based, Sus scrofa; conditions: in vivo
[8] = biological target: T2, Cholecystokinin receptor type A; assay: (§4) Agonist activity at human CCK1R expressed in human 1321N1 cells assessed as IP1 accumulation after 1 hr by HTRF assay; assay type: functional, cell-based
[9] = Plasma concentration in lean Landrace Yorkshire Duroc pig at 30 nmol/kg, sc measured after 96 hrs post dose; assay type: ADME, organism-based, Sus scrofa
[10] = test system: Sus scrofa; assay: Anti-obesity activity in lean Landrace Yorkshire Duroc pig assessed as food intake at 30 nmol/kg, sc measured at 72 to 96 hrs post dose (reference value: 1.8 to 2.1 kg); assay type: functional
[11] = test system: Sus scrofa; assay: Anti-obesity activity in lean Landrace Yorkshire Duroc pig assessed as food intake at 30 nmol/kg, sc measured up to 24 hrs post dose (reference value: 1.8 to 2.1 kg); assay type: functional
[12] = biological target: T3, Gastrin/cholecystokinin type B receptor (Homo sapiens) (UniProt P32239); assay: as §1; assay type: functional, cell-based
T3 sequence (whole entry): T1 sequence (P32239 whole entry)

[13] = biological target: T3, Gastrin/cholecystokinin type B receptor (Homo sapiens); assay: as §2
[14] = biological target: T4, Cholecystokinin receptor type A (Homo sapiens) (UniProt P32238); assay: as §3
T4 sequence (whole entry): T2 sequence (P32238 whole entry)

[15] = biological target: T4, Cholecystokinin receptor type A (Homo sapiens); assay: as §4; assay type: functional, cell-based

Drug uptake [1] | EC50 [8] [nM] | concentration at 96 h [9] [nM] | pEC50 [12] | pIC50 [13] | pIC50 [14] | pEC50 [15] | Compound | EC50 [2] [nM] | Activity [3] [kg] | IC50 [4] [nM] | IC50 [5] [nM] | Activity [6] [kg] | Activity [7] | Activity [10] [kg] | Activity [11] [kg]
Active | – | – | – | – | – | – | CCCC[C@H](NC(=O)[C@H](Cc1ccc(CS(=O)(=O)O)cc1)NC(=O)[C@H](CC(=O)O)NC(=O)COCCOCCNC(=O)COCCOCCNC(=O)CC[C@H](NC(=O)CCCCCCCCCCCCCCCCC(=O)O)C(=O)O)C(=O)NCC(=O)N[C@@H](Cc1c[nH]c2ccccc12)C(=O)N[C@@H](CCCC)C(=O)N(C)[C@@H](CC(=O)O)C(=O)O ({C18 diacid-γGlu-AEEA-AEEA}-D[Phe(4-CH2SO3H)][Nle]GW[Nle][NMeD]-OH) | – | – | – | – | – | – | – | –
– | 0.135 | 91.2 | – | – | – | – | CC(C)C[C@H](NC(=O)[C@H](Cc1ccc(OS(=O)(=O)O)cc1)NC(=O)[C@H](CC(=O)O)NC(=O)COCCOCCNC(=O)COCCOCCNC(=O)CC[C@H](NC(=O)CCCCCCCCCCCCCCCCC(=O)O)C(=O)O)C(=O)NCC(=O)N[C@@H](Cc1c[nH]c2ccccc12)C(=O)N[C@@H](CCC(N)=O)C(=O)N(C)[C@H](CC(=O)O)C(=O)N(C)[C@@H](Cc1ccccc1)C(N)=O ({C18 diacid-γGlu-AEEA-AEEA}-D[sY]LGWQ[dNMeD][NMeF]-NH2) | – | 1.8 | – | – | 1.3 | Non-Toxic | 1.8 | 1.4
– | – | – | inactive | inactive | inactive | inactive | CCCC[C@H](NC(=O)[C@H](Cc1ccc(OS(=O)(=O)O)cc1)NC(=O)[C@H](CC(=O)O)NC(=O)COCCOCCNC(=O)COCCOCCNC(=O)CC[C@H](NC(=O)CCCCCCCCCCCCCCCCC(=O)O)C(=O)O)C(=O)NCC(=O)N[C@@H](Cc1c[nH]c2ccccc12)C(=O)N[C@@H](Cc1ccccc1)C(=O)N[C@@H](CC(=O)O)C(=O)N[C@@H](Cc1ccccc1)C(N)=O ({C18 diacid-γGlu-AEEA-AEEA}-D[sY][Nle]GWFDF-NH2) | – | – | – | – | – | – | – | –
– | – | – | inactive | inactive | inactive | inactive | CCCC[C@H](NC(=O)[C@H](Cc1ccc(OS(=O)(=O)O)cc1)NC(=O)[C@H](CC(=O)O)NC(=O)COCCOCCNC(=O)COCCOCCNC(=O)CC[C@H](NC(=O)CCCCCCCCCCCCCCCCC(=O)O)C(=O)O)C(=O)NCC(=O)N[C@@H](Cc1c[nH]c2ccccc12)C(=O)N[C@@H](CCCCN)C(=O)N[C@@H](CC(=O)O)C(=O)N[C@@H](Cc1ccccc1)C(N)=O ({C18 diacid-γGlu-AEEA-AEEA}-D[sY][Nle]GWKDF-NH2) | – | – | – | – | – | – | – | –
– | – | – | inactive | inactive | inactive | inactive | CCCC[C@H](NC(=O)[C@H](Cc1ccc(OS(=O)(=O)O)cc1)NC(=O)[C@H](CC(=O)O)NC(=O)COCCOCCNC(=O)COCCOCCNC(=O)CC[C@H](NC(=O)CCCCCCCCCCCCCCCCC(=O)O)C(=O)O)C(=O)NCC(=O)N[C@@H](Cc1c[nH]c2ccccc12)C(=O)N[C@@H](CO)C(=O)N[C@@H](CC(=O)O)C(=O)N[C@@H](Cc1ccccc1)C(N)=O ({C18 diacid-γGlu-AEEA-AEEA}-D[sY][Nle]GWSDF-NH2) | – | – | – | – | – | – | – | –
– | 0.214 | 8.8 | – | – | – | – | CCCC[C@H](NC(=O)[C@H](Cc1ccc(CS(=O)(=O)O)cc1)NC(=O)[C@H](CC(=O)O)NC(=O)COCCOCCNC(=O)[C@H](CCCCN)NC(=O)COCCOCCNC(=O)COCCOCCNC(=O)CC[C@H](NC(=O)CCCCCCCCCCCCCCCCC(=O)O)C(=O)O)C(=O)NCC(=O)N[C@@H](Cc1c[nH]c2ccccc12)C(=O)N[C@@H](CCCC)C(=O)N(C)[C@H](CC(=O)O)C(=O)N(C)[C@@H](Cc1ccccc1)C(N)=O ({C18 diacid-γGlu-AEEA-AEEA}-K[AEEA]D[Phe(4-CH2SO3H)][Nle]GW[Nle][dNMeD][NMeF]-NH2) | – | 1.6 | 129 | 0.0631 | 1.2 | Non-Toxic | 1.8 | 0.9

Compound | Drug uptake [1] | EC50 [8] [nM] | concentration at 96 h [9] [nM] | pEC50 [12] | pIC50 [13] | pIC50 [14] | pEC50 [15] | EC50 [2] [nM] | Activity [3] [kg] | IC50 [4] [nM] | IC50 [5] [nM] | Activity [6] [kg] | Activity [7] | Activity [10] [kg] | Activity [11] [kg]
CCCC[C@H](NC(=O)[C@H](Cc1ccc(CS(=O)(=O)O)cc1)NC(=O)[C@H](CC(=O)O)NC(=O)COCCOCCNC(=O)COCCOCCNC(=O)CC[C@H](NC(=O)CCCCCCCCCCCCCCCCC(=O)O)C(=O)O)C(=O)NCC(=O)N[C@@H](Cc1c[nH]c2ccccc12)C(=O)N[C@@H](CCCC)C(=O)N(C)[C@@H](CC(=O)O)C(=O)N(C)[C@@H](Cc1ccccc1)C(N)=O ({C18 diacid-γGlu-AEEA-AEEA}-D[Phe(4-CH2SO3H)][Nle]GW[Nle][NMeD][NMeF]-NH2) | – | 0.107 | 93.9 | – | – | – | – | > 1000 | 2.3 | 8710 | 0.316 | 2 | Non-Toxic | 2.2 | 1.9
